Reference: patent US20120202840A1, “Use of Flubendazole and Vinca Alkaloids for Treatment of Hematological Diseases” (priority 2009, published 2012)
Where two headings read alike, the source gives them in different places.

Experiments:
KB-3-1 = assay: MTS assay, KB-3-1 wild type; format: cell-based; settings: Homo sapiens; KB-3-1, MTS assay, 3 replicates
Method: (§1) Next, whether microtubule inhibition was functionally important for flubendazole's cytotoxicity was determined.
(§2) Leukemia (U937, MDAY, CEM, CEM-VBL) and solid tumor cell lines (PPC-1, HeLa) were cultured in RPMI 1640 medium. The epidermoid carcinoma cell lines KB-3-1 and KB-4.0-HTI^23 were grown in Dulbecco's Modified Eagle Medium. The lung carcinoma cell lines A549 and A549.EpoB40 were grown in RPMI with the latter supplemented with 20% fetal calf serum (FCS), and 40 nM epothilone B.^24 Leukemia cell lines OCI-AML2, CEM, and NB4 and all the myeloma cell lines (OPM2, KMS11, JJN3 LP1, H929, L1, KMS12, KSM18 and OCI My5) were maintained in Iscove's Modified Dulbecco's Medium (IMDM). TEX cells were maintained in IMDM, 15% FCS, 1% penicillin-streptomycin, 2 mM L-glutamine, 20 ng/mL SCF, 2 ng/mL IL-3. Unless otherwise noted, all media were supplemented with 10% FCS, 100 units/mL of streptomycin and 100 μg/mL of penicillin (all from Hyclone, Logan, Utah). Cells were incubated in a humidified air atmosphere containing 5% CO2 at 37° C.
(§3) Cell growth and viability was measured using the 3-(4,5-dimethylthiazol-2-yl)-5-(3-carboxymethoxyphenyl)-2-(4-sulfophenyl)-2H-tetrazolium inner salt (MTS) reduction assay (Promega, Madison, Wis.) according to the manufacture's protocol and as previously described^25. […] Optical density (OD) was measured at 490 nm.

CEM-VBL = assay: MTS assay, CEM-VBL (Pgp over-expressing); format: cell-based
Method: Over-expression of P-glycoprotein (Pgp, MDR1) renders cells resistant to vinca alkaloid microtubule inhibitors.^43 Therefore, the effects of Pgp over-expression on flubendazole's cytotoxicity were tested. CEM-VBL cells over-express Pgp,^44 which was confirmed with a rhodamine dye exclusion assay. CEM wild type and CEM-VBL cells were treated with increasing concentrations of flubendazole or vinblastine and cell viability measured by the MTS assay (Table 1). […] In contrast, CEM-VBL cells over-expressing Pgp were resistant to vinblastine at concentrations greater than 5.0 μM (Table 1).
as §2
(§4) Cell growth and viability was measured using the 3-(4,5-dimethylthiazol-2-yl)-5-(3-carboxymethoxyphenyl)-2-(4-sulfophenyl)-2H-tetrazolium inner salt (MTS) reduction assay (Promega, Madison, Wis.) according to the manufacture's protocol and as previously described^25. Cells were seeded in 96 well plates and treated with drug for 72 h. Optical density (OD) was measured at 490 nm.

KB-4.0-HTI = assay: MTS assay, KB-4.0-HTI (α-tubulin mutant); format: cell-based
Method: as §1, §2, §3

bovine tubulin = assay: Measurement of tubulin sulfhydryl groups (DTNB); format: biochemical; settings: flubendazole 100 μM, vinblastine 10 μM
Method: A representative figure is shown.
The ability of microtubule target drugs to alter tubulin structure was assessed by measuring the number of reactive cysteine residues using the sulfhydryl reagent 5,5′-Dithio-bis(2-nitrobenzoic acid) (DTNB; Sigma) as previously described^19,29. […] After incubation, DTNB was added (100 μM final concentration) and the absorbance was measured in a 1 cm path length cuvette at 412 nm for 60 min at 37° C. The number of sulfhydryl groups were determined by using a molar extinction coefficient for DTNB of 13 600 (M^−1, cm^−1).^29

A549.EpoB40 = assay: MTS assay, A549.EpoB40 (β-tubulin mutant); format: cell-based
Method: as §1, §2, §3

[1] = rats, mice and guinea-pigs, cited from earlier work
PPC-1 cells = assay: Cell cycle analysis (PI, flow cytometry), PPC-1; format: cell-based; settings: PPC-1, 1.0 μM, 24 h
Method: OCI-AML2 cells (A) or PPC-1 cells (B) were incubated with 1.0 μM flubendazole or buffer control for 24 h. Cells were then stained with PI and the DNA content was measured by flow cytometry. A representative figure is shown.
Cell cycle analysis was performed as described by Mao et al^31. Briefly, OCI-AML2 or PPC-1 cells were harvested, washed with cold PBS and resuspended in PBS and cold absolute ethanol. Cells were then treated with 100 ng/mL of DNase-free RNase A (Invitrogen, Carlsbad, Calif.) at 37° C. for 30 min, washed with cold PBS, resuspended in PBS and incubated with 50 μg/mL of propidium iodine (PI) for 15 min at room temperature in the dark. DNA content was measured by flow cytometry (FACSCalibur, Becton Dickinson, Florida, USA) and analyzed with FlowJo software version 7.0 (TreeStar, Ashland, Oreg.).

CEM = assay: MTS cell growth and viability assay, CEM; format: cell-based; settings: Homo sapiens, CCRF-CEM, 3 replicates
Method: as §2, §4

in vitro = format: cell-based; settings: human
Method: (§5) (E) HeLa cells were grown to confluence and a wound created on the cell monolayer using a 200 μL pipette. Cells were treated with increasing concentrations of flubendazole and imaged every 2 h for 8 h. Wound healing was measured as described in the materials and methods. Representative data is shown and are presented as % wound recovery. *p<0.05 (ANOVA, bonferroni post hoc).
(§6) HeLa cell migration was measured as previously described^30. Briefly, HeLa cells were seeded in 4 well chambers and grown to confluence. A wound was inflicted to the monolayer using a 200 μL pipette tip. Wells were washed with media to remove any detached cells and media containing either 0 μM, 0.5 μM or 1.0 μM flubendazole was then added and incubated at 37° C. for 8 hours. Images were captured using a Zeiss Axiovert 200M microscope every 2 hours. These images were quantified using Image J software, which outlined and enumerated the number of pixels in the wound area. Cell migration of HeLa cells was recorded and calculated as a percent recovery of wound area.

HeLa cells = assay: in vitro; format: cell-based; settings: HeLa, 0.5 or 1.0 μM, 8 hours
Method: as §5, §6

[2] = ratio of IC50 values of Table 1

COC(=O)Nc1nc2ccc(C(=O)c3ccc(F)cc3)cc2[nH]1 [flubendazole]
IC50 (KB-3-1): 1900 ± 1100 nM
IC50 (CEM-VBL; CEM-VBL, 3 replicates): 2700 ± 1200 nM
sensitivity of CEM-VBL cells compared to wild type controls (CEM-VBL; Pgp over-expression): fully sensitive
IC50 (KB-4.0-HTI; KB-4.0-HTI, MTS assay, 3 replicates): 12500 ± 1800 nM
IC50 higher in KB-4.0-HTI than in KB-3-1 wild type cells (KB-4.0-HTI; [2]): 7 fold
reduction in number of reactive cysteines compared to buffer control (bovine tubulin): 5.2±2.6
IC50 (A549.EpoB40; A549.EpoB40, MTS assay, 3 replicates): 800 ± 200 nM
IC50 lower in A549.EpoB40 than in A549 control cells (A549.EpoB40; [2]): 5 fold
LD50 ([1]; intraperitoneal administration): > 400 mg/kg
LD50 ([1]; oral administration): > 5000 mg/kg
cell cycle (PPC-1 cells): arrested cells in the G2 phase
IC50 (CEM): 1900 ± 900 nM
viability at 8 h (in vitro): > 89%
cell migration / wound healing (HeLa cells): impaired cell migration and delayed wound healing
